Data as given in DBAASP.
≈ marks a conversion by molar mass, not a printed value. Values belong to the compound of their own block, whether it stands above or below them.

What was measured:
Experiment in all cases: ≥ marks a high value that may be exact or a test limit, other limits are often not marked, values filed in µg/mL are converted to µM
[1] = test system: Escherichia coli ATCC 25922
[2] = test system: Pseudomonas aeruginosa 21328
[3] = test system: Pseudomonas aeruginosa 25349
[4] = test system: Pseudomonas aeruginosa ATCC 27853
[5] = test system: Pseudomonas aeruginosa CICC 10419
[6] = test system: Pseudomonas aeruginosa CICC 11411
[7] = test system: Pseudomonas aeruginosa CICC 11421
[8] = test system: Pseudomonas aeruginosa CICC 11431
[9] = test system: Pseudomonas aeruginosa CICC 21625
[10] = test system: Pseudomonas aeruginosa CICC 21630
[11] = test system: Staphylococcus aureus ATCC 29213
[12] = test system: Escherichia coli DH5alpha
[13] = test system: Pseudomonas aeruginosa NBRC 13275
[14] = test system: Staphylococcus aureus NBRC 13276
Aeromonas hydrophila = test system: Aeromonas hydrophila
Bacillus cereus = test system: Bacillus cereus
Bacillus subtilis = test system: Bacillus subtilis
Candida albicans = test system: Candida albicans
[15] = test system: Corynebacterium glutamicum
Cryptococcus neoformans = test system: Cryptococcus neoformans
Escherichia coli = test system: Escherichia coli
Pseudomonas aeruginosa = test system: Pseudomonas aeruginosa
Pseudomonas fluorescens = test system: Pseudomonas fluorescens
Shigella flexneri = test system: Shigella flexneri
Staphylococcus aureus = test system: Staphylococcus aureus
[16] = test system: Staphylococcus epidermidis
Vibrio alginolyticus = test system: Vibrio alginolyticus
Vibrio parahaemolyticus = test system: Vibrio parahaemolyticus
[17] = test system: Cronobacter muytjensii ATCC 51329
[18] = test system: Cronobacter sakazakii ATCC BAA-894
[19] = test system: Cronobacter sakazakii DPC 6440
[20] = test system: Cronobacter sakazakii DSM 4485
[21] = test system: Escherichia coli NCIMB 11843
Escherichia coli O111 = test system: Escherichia coli O111
Escherichia coli O157:H7 = test system: Escherichia coli O157:H7
[22] = test system: Klebsiella pneumoniae NCIMB 13218
[23] = test system: Pseudomonas fluorescens NCIMB 9046
[24] = test system: Salmonella enterica subsp. enterica serovar Typhimurium DT104
[25] = test system: Salmonella enterica subsp. enterica serovar Typhimurium LT2
[26] = test system: Staphylococcus aureus NCTC 7428
[27] = test system: Staphylococcus aureus NCTC 8325-4
[28] = test system: Staphylococcus aureus Newman
[29] = test system: Staphylococcus aureus RF122
[30] = test system: Staphylococcus aureus RN4220
[31] = test system: Staphylococcus aureus SA113
[32] = test system: Bacillus subtilis MTCC 121
[33] = test system: Escherichia coli ATCC 11775
[34] = test system: Escherichia coli ATCC 35218
Escherichia coli ML-35p = test system: Escherichia coli ML-35p
[35] = test system: Klebsiella pneumoniae ATCC 13883
[36] = test system: Klebsiella pneumoniae ATCC 700603
[37] = test system: Micrococcus luteus MTCC 166
[38] = test system: Salmonella enterica subsp. enterica serovar Abony NCTC 6017
[39] = test system: Salmonella enterica subsp. enterica serovar Typhi Vi+
[40] = test system: Salmonella enterica subsp. enterica serovar Typhimurium ATCC 14028
[41] = test system: Staphylococcus aureus ATCC 33592
[42] = test system: Staphylococcus epidermidis MTCC 435
[43] = test system: Staphylococcus saprophyticus MTCC 6155

Structure (SMILES): CC(=O)N[C@@H](CCCCN)C(=O)N[C@@H](Cc1ccccc1)C(=O)N[C@@H](CC(C)C)C(=O)N[C@@H](Cc1cnc[nH]1)C(=O)N[C@@H](CO)C(=O)N[C@@H](C)C(=O)N[C@@H](CCCCN)C(=O)N[C@@H](CCCCN)C(=O)N[C@@H](Cc1ccccc1)C(N)=O [KFLHSAKKF]
MIC [12]: ≥ 200 µM
MIC [13]: ≥ 200 µM
MIC [14]: ≥ 400 µM

Structure (SMILES): CC(C)C[C@H](NC(=O)[C@H](CO)NC(=O)[C@H](CC(C)C)NC(=O)[C@H](Cc1cnc[nH]1)NC(=O)[C@H](CO)NC(=O)[C@@H](N)CCC(N)=O)C(=O)N[C@H]1CSSC[C@@H](C(=O)N[C@@H](CCCCN)C(=O)N[C@@H](Cc2ccccc2)C(=O)O)NC(=O)[C@@H]2CSSC[C@@H]3NC(=O)[C@H](CSSC[C@H](NC(=O)[C@H](CC(N)=O)NC3=O)C(=O)N[C@H]3CSSC[C@H](NC(=O)CNC(=O)[C@H](CCCCN)NC(=O)[C@H](Cc4ccc(O)cc4)NC(=O)[C@H](CCCN=C(N)N)NC(=O)[C@H](CC(N)=O)NC3=O)C(=O)NCC(=O)N[C@@H](Cc3ccccc3)C(=O)N2)NC(=O)[C@H](Cc2c[nH]c3ccccc23)NC(=O)[C@H](CCCN=C(N)N)NC1=O [QSHLSLCRWCCNCCNRYKGCGFCCKF]
MIC (Aeromonas hydrophila): ≥ 50 µM
MIC (Bacillus cereus): ≥ 50 µM
MIC (Bacillus subtilis): 8.84 µM (≈ 27 µg/mL)
MIC (Candida albicans): > 50 µM
MIC [15]: 8.84 µM (≈ 27 µg/mL)
MIC (Cryptococcus neoformans): ≥ 50 µM
MIC (Escherichia coli): > 50 µM
MIC (Pseudomonas aeruginosa): 35.4 µM (≈ 108 µg/mL)
MIC (Pseudomonas fluorescens): 17.7 µM (≈ 54 µg/mL)
MIC (Shigella flexneri): ≥ 50 µM
MIC (Staphylococcus aureus): > 50 µM
MIC [16]: ≥ 50 µM
MIC (Vibrio alginolyticus): ≥ 50 µM
MIC (Vibrio parahaemolyticus): ≥ 50 µM

Structure (SMILES): CC(C)C[C@H](NC(=O)[C@H](CC(C)C)NC(=O)[C@H](CC(N)=O)NC(=O)[C@H](CCC(=O)O)NC(=O)[C@H](CC(N)=O)NC(=O)[C@H](CC(C)C)NC(=O)[C@@H](N)C(C)C)C(=O)N[C@@H](CCCN=C(N)N)C(=O)O [VLNENLLR]
MIC [17]: ≥ 625 µM
MIC [18]: ≥ 625 µM
MIC [19]: ≥ 1250 µM
MIC [20]: ≥ 625 µM
MIC [21]: ≥ 1250 µM
MIC (Escherichia coli O111): ≥ 2060 µM
MIC (Escherichia coli O157:H7): ≥ 2060 µM
MIC [22]: ≥ 1250 µM
MIC [4]: 64 µM (≈ 62.1 µg/mL)
MIC [23]: ≥ 1250 µM
MIC [24]: ≥ 2060 µM
MIC [25]: ≥ 1250 µM
MIC [26]: ≥ 2060 µM
MIC [27]: ≥ 1250 µM
MIC [28]: ≥ 1250 µM
MIC [29]: ≥ 1250 µM
MIC [30]: ≥ 1250 µM
MIC [31]: ≥ 1250 µM

Results, then the compound that gave them:

MIC [1]: > 57.7 µM
MIC [2]: ≥ 57.7 µM
MIC [3]: 20.4 µM (≈ 45.2 µg/mL)
MIC [4]: 14.4 µM (≈ 32 µg/mL)
MIC [5]: ≥ 115 µM
MIC [6]: ≥ 57.7 µM
MIC [7]: ≥ 115 µM
MIC [8]: 28.8 µM (≈ 64 µg/mL)
MIC [9]: 28.8 µM (≈ 64 µg/mL)
MIC [10]: 14.4 µM (≈ 32 µg/mL)
MIC [11]: 28.8 µM (≈ 64 µg/mL)
Structure (SMILES): CC(C)C[C@H](NC(=O)[C@H](CCCN=C(N)N)NC(=O)[C@H](CCCN=C(N)N)NC(=O)[C@H](CC(C)C)NC(=O)[C@H](Cc1c[nH]c2ccccc12)NC(=O)[C@H](CCCN=C(N)N)NC(=O)[C@H](CCCN=C(N)N)NC(=O)[C@H](CCCN=C(N)N)NC(=O)[C@H](CC(C)C)NC(=O)[C@H](CCCN=C(N)N)NC(=O)[C@H](CCCN=C(N)N)NC(=O)[C@@H](N)CC(C)C)C(=O)N[C@@H](CCCN=C(N)N)C(=O)N[C@@H](CCCN=C(N)N)C(=O)N[C@@H](CCCN=C(N)N)C(N)=O [LRRLRRRWLRRLRRR]

MIC [32]: 3 µM (≈ 5.56 µg/mL)
MIC [33]: 4 µM (≈ 7.41 µg/mL)
MIC [34]: 5 µM (≈ 9.26 µg/mL)
MIC (Escherichia coli ML-35p): 4 µM (≈ 7.41 µg/mL)
MIC [35]: 3 µM (≈ 5.56 µg/mL)
MIC [36]: 5 µM (≈ 9.26 µg/mL)
MIC [37]: 2.5 µM (≈ 4.63 µg/mL)
MIC [4]: 4 µM (≈ 7.41 µg/mL)
MIC [38]: 7 µM (≈ 13 µg/mL)
MIC [39]: 2 µM (≈ 3.7 µg/mL)
MIC [40]: 7 µM (≈ 13 µg/mL)
MIC [41]: 3 µM (≈ 5.56 µg/mL)
MIC [42]: 4 µM (≈ 7.41 µg/mL)
MIC [43]: 3 µM (≈ 5.56 µg/mL)
Structure (SMILES): CC[C@H](C)[C@H](N)C(=O)N[C@@H](CC(C)C)C(=O)N1CCC[C@H]1C(=O)N[C@@H](Cc1c[nH]c2ccccc12)C(=O)N[C@@H](CCCCN)C(=O)N[C@@H](Cc1c[nH]c2ccccc12)C(=O)N[C@@H](CCCCN)C(=O)N[C@@H](Cc1c[nH]c2ccccc12)C(=O)N[C@H](C(=O)N1CCC[C@H]1C(=O)N[C@@H](Cc1c[nH]c2ccccc12)C(=O)N[C@@H](CCCN=C(N)N)C(=O)N[C@@H](CCCN=C(N)N)C(N)=O)[C@@H](C)O [ILPWKWKWTPWRR]
